# Measured values: patent US20260000496A1, “MATERIALS AND METHODS FOR DRUG-INDUCED GINGIVAL OVERGROWTH” (Optimed Technology, Inc., priority 2019, published 2026)
# How the values were obtained:
# [1] = system: p-P65; assay: Immunofluorescence of p-P65 nuclear translocation in oral keratinocytes; format: cell-based, human; conditions: 24 hours
# Description: Immunostaining and fluorescence microscopy. The cultured cells were fixed with 4% paraformaldehyde followed by permeabilization with phosphate buffered saline (PBS) containing 0.1% Triton X-100 (PBS-T), and blocking with PBS-T containing 5% bovine serum albumin (BSA). Then, the cells were incubated with anti-pP65 antibody (Cell Signaling, USA) followed by Alexa Fluor 488 conjugated-goat anti-rabbit secondary antibody (Invitrogen, Grand Island). Rhodamine phalloidin (Invitrogen) and 4′,6-diamidino-2-phenylindole (Vector labs, Burlingame) were added to visualize the actin and nucleus respectively. The samples were mounted and examined using a Zoe microscope (BioRad, USA). The image analyses were performed using the ImageJ (NIH) software.
# Oral Keratinocytes cells were cultured, and treated with CSA, LPS or FA alone or with combinations and incubated for 24 hours. The immunofluorescent images were taken to determine the translocation of p-P65 (green) to the nucleus (blue). Cells were counterstained with Phalloidin (cytoskeleton, red) and DAPI (nucleus).
# Oral Keratinocytes cells were seeded in 24 well plates. […] Translocation of phospho-p65 (p-P65) protein to the nucleus was determined by fluorescence microscopy as shown in the green color. The morphology of cells and nucleus position were determined by palloidin and DAPI staining shown by red and blue colors respectively.
# [2] = system: Myd88; assay: Mice study #2: Myd88 immunoblotting of gingival samples; format: in vivo, C57BL/6 mice; conditions: three mice per group
# Description: Western blot analysis. Cells were seeded in 60 mm plates with a density of 5×10^5 cells per plate and washed briefly with Dulbecco's phosphate-buffered saline (Gibco, Waltham, MA, USA). Whole cell lysates were prepared using RIPA lysis buffer containing protease inhibitor cocktail (Sigma-Aldrich). Total protein concentration was determined using the BCA reagent (Pierce, Waltham, MA, USA). 20 μg of total protein were resolved on sodium dodecyl sulfate-polyacrylamide gel electrophoresis and transferred to polyvinylidenedifluoride membrane and immunoblotted. The blots were incubated for 1 h in 1% bovine serum albumin (BSA) (Sigma-Aldrich) to block the non-specific bindings followed by over-night incubation in primary antibodies (MyD88 and pP65 from Cell Signaling Technology, and human LITAF ThermoFisher Sigma) at 4° C. on shaker. Next day, blots were washed for three times (10 min each) in Tris-buffered saline containing 1% Tween20 (TBST) followed by incubation with secondary antibody (Goat anti-rabbit IgG HRP) with 1:10,000 dilution for 1 h. […] The band intensities were quantified using software ImageJ (NIH, USA) and relative protein levels were normalized by β-actin (Cell Signaling). […] The band intensities were measured by the software ImageJ (NIH, USA), and relative protein levels were normalized by β-actin.
# [3] = system: TNF-α; assay: TNF-α ELISA of mice gingival tissue lysates; format: in vivo; conditions: n=5, p<0.05
# Description: Enzyme linked immunosorbent assay (ELISA). ELISA was conducted with a mouse TNF-α ELISA Kit (PeproTech, USA) and TGF-β Emax ImmunoAssay System (Promega USA) to detect the TNF-α and TGF-β respectively. After normalization of the total cells or tissue protein lysates, 20 μg protein of each sample was used for the detection of TNF-α or TGF-β. ELISA was performed according to the manufacturers' instructions. For TNF-α, 100 ng/100 μl of capture antibody was added to each well of 96 well assay plate and incubated for overnight at room temperature. Blocking buffer of 200 μl per well were added to each well and incubated for 1 hour at room temperature. 20 μg of each protein sample as well as TNF-α standard (from 2 ng/ml to 0 ng/ml) were added and incubated the plates for 2 hours. 50 ng/100 μl of detection antibody was added in each well and incubated for 2 hours. Avidin-HRP conjugated antibody with a dilution of 1:2000 was added for 30 minutes. 100 μl per well of ABTS solution was added to each well and incubated until color change. Optical absorbing values were read at 405 and 450 nm and corrected by 650 nm. […] TMB One Solution was added for 15 minutes and the reaction were stopped using 100 μl of 1N hydrochloric acid and the absorbance at 450 nm were recorded on a plate reader. Data were analyzed using excel software. […]
# Mice gingival tissue lysates were assessed for TNF-α levels using an ELISA (n=5).
compound,measurement,setting,value
Nc1nc2ncc(CNc3ccc(C(=O)N[C@@H](CCC(=O)O)C(=O)O)cc3)nc2c(=O)[nH]1 [folic acid],translocation of p-P65 to the nucleus,"[1]; CSA, LPS or FA alone or in combinations",inhibits CSA-induced activation of phospho-P65
same,translocation of phospho-p65 (p-P65) protein to the nucleus,"[1]; LPS, Phe, FA each 10 μg/ml",reduced nuclear translocation of p-P65
same,"Myd88 expression, disease group relative to control and folic acid treatment group",[2],higher Myd88 expressions compared to the control and treatment group
same,TNF-α levels in mice gingival tissue lysates,[3],reduced the expression of TNF-α
